Source: BindingDB's records for doi:10.7270/Q2X34VWJ (Nmmlsc, 2009)
pEC50: −log10 of the molar value.

These compounds were tested against Ras-related protein Rab-7a (Canis lupus familiaris, UniProt P18067) (assay: extra analogs blocking nucleotide binding to Rab7 – biochemical, additional analogs, wildtype, multiplex bead flow cytometry, SAR follow-up (AID 2036)). Details: not given.
Sequence of Ras-related protein Rab-7a (P18067 whole entry): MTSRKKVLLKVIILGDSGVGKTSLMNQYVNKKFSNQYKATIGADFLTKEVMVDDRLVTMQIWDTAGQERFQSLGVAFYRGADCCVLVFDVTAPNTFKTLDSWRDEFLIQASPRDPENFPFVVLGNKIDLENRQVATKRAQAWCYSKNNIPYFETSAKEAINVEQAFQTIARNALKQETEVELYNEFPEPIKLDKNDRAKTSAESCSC
For `O=C1NC(=S)N/C1=C1\C(=O)Nc2ccccc21` [(3Z)-3-(5-oxo-2-sulfanylideneimidazolidin-4-ylidene)-1H-indol-2-one], the pEC50 was 4.87.
`O=C1N=c2c(Br)cccc2=C1c1[nH]c2ccccc2c1NO` [7-bromanyl-3-[3-(oxidanylamino)-1H-indol-2-yl]indol-2-one] was tested, and the pEC50 was 4.52.
`O=C1N=c2c(F)cccc2=C1c1[nH]c2ccccc2c1NO` [7-fluoro-3-[3-(hydroxyamino)-1H-indol-2-yl]-2-indolone] gave a pEC50 of 4.52.
Compound `O=C1NC(=O)/C(=C2/C(=O)Nc3ccccc32)N1` has a pEC50 of 4.52.
Compound `C[C@@H](C(=O)O)c1cccc(Oc2ccccc2)c1` [calcium;2-(3-phenoxyphenyl)propanoic acid;hydrate] has a pEC50 of 4.52.
`O=C1Nc2c(F)cccc2C1=C1Nc2ccccc2C1=O` showed a pEC50 of 4.62.
`O=C1N=c2c(Cl)cccc2=C1c1[nH]c2ccccc2c1NO` [7-chloro-3-[3-(hydroxyamino)-1H-indol-2-yl]-2-indolone] showed a pEC50 of 4.52.
With `O=C1Nc2ccc(Br)cc2C1=C1Nc2ccccc2C1=O` the pEC50 was 4.52.
In the case of `O=C1N=c2ccc(Br)cc2=C1c1[nH]c2ccccc2c1NO` [5-bromanyl-3-[3-(oxidanylamino)-1H-indol-2-yl]indol-2-one], the pEC50 was 4.52.
In the case of `O=C1Nc2c(Br)cccc2C1=C1Nc2ccccc2C1=O`, the pEC50 was 4.52.
`O=C1Nc2c(Cl)cccc2C1=C1Nc2ccccc2C1=O` showed a pEC50 of 7.62.
In the case of `O=C1N=c2ccccc2=C1c1[nH]c2ccccc2c1NO` [3-[3-(hydroxyamino)-1H-indol-2-yl]-2-indolone], the pEC50 was 4.52.
For `O=C1Nc2ccccc2/C1=C1/Nc2ccccc2C1=O` [2-[(3Z)-2-oxo-2,3-dihydro-1H-indol-3-ylidene]-2,3-dihydro-1H-indol-3-one], the pEC50 was 4.52.

Same assay, conditions: inactive by the depositor's call
Compound `O=C1Nc2ccccc2/C1=C1/Cc2ccccc2C1=O` [UNM-0000305763] has a pEC50 of 4.52.
`N#Cc1ccc(C(=O)C#Cc2ccccc2)cc1` [4-(3-phenylprop-2-ynoyl)benzenecarbonitrile] was tested, and the pEC50 was 4.52.
`COc1cc(-c2c(C#N)c(N)n(S(=O)(=O)c3c(C(C)C)cc(C(C)C)cc3C(C)C)c2C(=O)c2ccccc2)cc(OC)c1OC` [2-azanyl-5-(phenylcarbonyl)-4-(3,4,5-trimethoxyphenyl)-1-[2,4,6-tri(propan-2-yl)phenyl]sulfonyl-pyrrole-3-carbonitrile] showed a pEC50 of 4.48.
Compound `O=C(C#Cc1ccccc1)c1cccnc1` [3-phenyl-1-pyridin-3-ylprop-2-yn-1-one] has a pEC50 of 4.52.
Work on `O=C(C#Cc1ccccc1)c1ccc([N+](=O)[O-])cc1` [1-(4-nitrophenyl)-3-phenyl-2-propyn-1-one] yielded a pEC50 of 4.52.
`CCCCS(=O)(=O)n1c(N)c(C#N)c(-c2cc(OC)c(OC)c(OC)c2)c1C(=O)c1ccccc1` [2-amino-5-benzoyl-1-butylsulfonyl-4-(3,4,5-trimethoxyphenyl)-3-pyrrolecarbonitrile] gave a pEC50 of 4.52.
`CC(C)Cc1ccc([C@H](C)C(=O)O)cc1` [(S)-2-(4-Isobutyl-phenyl)-propionic acid] was tested, and the pEC50 was 5.32.
In the case of `O=C(C#Cc1ccccc1)c1ccccc1[N+](=O)[O-]` [UNM-0000306038], the pEC50 was 4.52.
`COc1ccc(-c2c(C#N)c(N)n(S(C)(=O)=O)c2C(=O)c2ccccc2)cc1Br` [2-azanyl-4-(3-bromanyl-4-methoxy-phenyl)-1-methylsulfonyl-5-(phenylcarbonyl)pyrrole-3-carbonitrile] showed a pEC50 of 4.52.
`COC(=O)c1ccc(C(=O)C#Cc2ccccc2)cc1` [4-(1-oxo-3-phenylprop-2-ynyl)benzoic acid methyl ester] gave a pEC50 of 4.52.
Work on `COc1ccc(C(=O)C#Cc2ccccc2)cc1` [1-(4-methoxyphenyl)-3-phenyl-2-propyn-1-one] yielded a pEC50 of 4.52.
`N#Cc1c(-c2ccc(Cl)cc2)c(C(=O)c2ccccc2)n(S(=O)(=O)c2ccc([N+](=O)[O-])cc2)c1N` [UNM-0000305780] was tested, and the pEC50 was 4.52.
Work on `O=C1Nc2cccc(Br)c2/C1=C1/Cc2ccccc2C1=O` yielded a pEC50 of 4.52.
Compound `COc1ccc(S(=O)(=O)n2c(N)c(C#N)c(-c3cncc(Br)c3)c2C(=O)c2ccccc2)cc1` [2-amino-5-benzoyl-4-(5-bromo-3-pyridinyl)-1-(4-methoxyphenyl)sulfonyl-3-pyrrolecarbonitrile] has a pEC50 of 5.08.
`COc1ccc(S(=O)(=O)n2c(N)c(C#N)c(-c3ccccc3)c2C(=O)c2ccc(Br)cc2)cc1` showed a pEC50 of 4.52.
`CC(=O)Oc1ccccc1C(=O)O` [2-(acetyloxy)benzoic acid] gave a pEC50 of 4.52.
Work on `CSc1ccc(/C=C2/C(C)=C(CC(=O)O)c3cc(F)ccc32)cc1` [{6-Fluoro-2-methyl-3-[1-(4-methylsulfanyl-phenyl)-meth-(E)-ylidene]-3H-inden-1-yl}-acetic acid] yielded a pEC50 of 4.38.
`O=[N+]([O-])c1ccc(C#Cc2ccccc2)cc1` gave a pEC50 of 4.52.
In the case of `O=C(C#Cc1ccccc1)c1ccc(Cl)cc1` [UNM-0000306055], the pEC50 was 4.52.
With `O=C(C#Cc1ccccc1)c1ccccc1` [UNM-0000306039] the pEC50 was 4.52.
In the case of `CC1=C(CC(=O)O)c2cc(F)ccc2/C1=C/c1ccc([S+](C)[O-])cc1` (stereo not given) [UNM-0000306136], the pEC50 was 4.52.
For `O=C(C#Cc1ccccc1)c1ccc(F)cc1` [UNM-0000306059], the pEC50 was 4.52.
With `CC(C(=O)O)c1cccc(C(=O)c2ccccc2)c1` (stereo not given) [2-(3-benzoylphenyl)propanoic acid] the pEC50 was 4.52.
In the case of `O=C(C#Cc1ccccc1)c1ccc(OC(F)(F)F)cc1`, the pEC50 was 4.52.
`O=C1Nc2c(Br)cccc2/C1=C1/Cc2ccccc2C1=O` [(3E)-7-bromo-3-(3-oxo-1H-inden-2-ylidene)-1H-indol-2-one] was tested, and the pEC50 was 4.52.
In the case of `COc1ccc2cc(CC(=O)O)ccc2c1` [2-(6-methoxynaphthalen-2-yl)ethanoic acid], the pEC50 was 4.52.
`COc1ccc(S(=O)(=O)n2c(N)c(C#N)c(-c3cc(Br)c(OC)c(OC)c3)c2C(=O)c2ccccc2)cc1` [UNM-0000305782] showed a pEC50 of 4.52.
